Values quoted from earlier work as cited in patent US20210077417A1, “Methods and Compositions Particularly for Treatment of Attention Deficit Disorder” (Purdue Pharma L.P., priority 2018, published 2021).
Structures can show the parent of a compound that is named as a salt. Where two headings read alike, the source gives them in different places.

Columns and labels:
patients with ADHD = details: reported

COC(=O)C(c1ccccc1)C1CCCCN1 (stereo not shown) [Methylphenidate hydrochloride]
Solubility (in acetone): slightly soluble | Solubility (in alcohol): soluble | Solubility (in chloroform): slightly soluble | Solubility (in methanol): freely soluble | Solubility (in water): freely soluble

lisdexamfetamine dimesylate
Duration of action (patients with ADHD): up to 14 hours | Onset of action (patients with ADHD): does not have a rapid onset of action

COC(=O)C(c1ccccc1)C1CCCCN1 (racemic) [Methylphenidate, dl-threo-methyl-2-phenyl-2-(2-piperidyl)acetate]
Stability (acidic solutions): relatively stable | Degradation amount (hydrolysis of the methyl ester) (as the pH increases to 8.9): up to 100% | Stability (basic solutions): degraded extensively
